Here are results for 24 molecules from patent US12053451B2, “Arginase inhibitors and their therapeutic applications” (OncoArendi Therapeutics S.A., priority 2016, dated 2024).

Structures can show the parent of a compound that is named as a salt.

One assay addresses T1, recombinant human arginase 1 (Homo sapiens, UniProt P05089).
T1 construct: purchased Biolegend 552502
T1 sequence (P05089 1-322): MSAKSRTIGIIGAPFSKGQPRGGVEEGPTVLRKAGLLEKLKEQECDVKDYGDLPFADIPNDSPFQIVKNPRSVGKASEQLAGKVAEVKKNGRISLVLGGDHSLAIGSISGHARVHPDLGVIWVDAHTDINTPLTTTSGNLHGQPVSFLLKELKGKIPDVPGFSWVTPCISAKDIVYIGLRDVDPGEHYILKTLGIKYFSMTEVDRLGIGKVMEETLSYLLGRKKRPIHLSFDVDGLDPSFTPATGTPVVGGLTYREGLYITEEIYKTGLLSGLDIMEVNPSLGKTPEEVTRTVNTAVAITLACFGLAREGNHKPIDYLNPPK
The assay can be described thus: Human arginase activity assay (urea measurement), arginase 1. It counts as biochemical. The conditions noted are these: recombinant human arginase 1, pH 7.4, 37° C., 60 min; * = value for the most potent diastereoisomer or the mixture of diastereoisomers; read-out: Activity Class (ARG I). The procedure: (§1) Human Arginase Activity Assay
The assay was run in the 96-well plate format, each reaction in the total volume of 100 uL. The assay is based on urea measurement, which is a product of L-arginine enzymatic degradation. […] The color product is developed by adding a mixture of reagent A (4 mM oPA in 50 mM boric acid in 1M sulfuric acid, 0.03% Brij-35) and reagent B (4 mM NED in 50 mM boric acid in 1M sulfuric acid, 0.03% Brij-35) in equal proportions. The absorbance for each well was measured at 530 nm.
(§2) For positive control, only the enzyme and substrate were used, the negative controls contained substrate solution with assay buffer. After incubating the microtiter plate at 37° C. for 60 min 150 μL of mixed reagents A and B was added to each well to stop the reaction. Absorbance was measured (λ=530 nm) 20 minutes later, after color development. The urea production in the absence of any compound was considered the maximum arginase activity. The absorbance in the absence of arginase (background) was subtracted from all the values. The normalized OD was used to generate a concentration-response curve by plotting the percent of inhibition against log[concentration] of the compound and using regression analysis (GraphPad Prism 7.0) to compute the IC50 values.
Take `C[C@H]1[C@H](CCB(O)O)CCC1(N)C(=O)O` (mixture of isomers) [Example 2, rac-(2S,3R)-1-amino-3-(2-boronoethyl)-2-methylcyclopentane-1-carboxylic acid]: the IC50 is > 100 µM.

In the case of `CC1(CCB(O)O)CCC(N)(C(=O)O)C1` (racemic) [Example 3, 1-amino-3-(2-boronoethyl)-3-methylcyclopentane-1-carboxylic acid], the IC50 was > 100 µM. Still for that read-out and setting: then `N[C@@]1(C(=O)O)C[C@H](CCB(O)O)[C@@H](O)C1` (racemic) [Example 4, rac-(1S,3S,4S)-1-Amino-3-(2-boronoethyl)-4-hydroxycyclopentane-1-carboxylic acid hydrochloride], with 10 to 100 µM; and `N[C@]1(C(=O)O)C[C@H](CCB(O)O)[C@@H](O)C1` (racemic) [Example 5, rac-(1R,3S,4S)-1-Amino-3-(2-boronoethyl)-4-hydroxycyclopentane-1-carboxylic acid hydrochloride], with > 100 µM.

Consider `NC[C@H]1C[C@@](N)(C(=O)O)C[C@@H]1CCB(O)O` (racemic) [Example 7, rac-(1R,3S,4S)-1-Amino-3-(aminomethyl)-4-(2-boronoethyl)cyclopentane-1-carboxylic acid dihydrochloride], for which the IC50 lay in the range of 1 to 10 µM. On the same count and under the same terms, in the case of `N[C@]1(C(=O)O)CCC[C@@H](CCB(O)O)C1` (racemic) [Example 11, rac-(1R,3R)-1-Amino-3-(2-boronoethyl)cyclohexane-1-carboxylic acid hydrochloride] it was 10 to 100 µM; in that of `N[C@@]1(C(=O)O)C[C@H](CCB(O)O)CC[C@H]1O` (racemic) [Example 14, rac-(1S,2R,5R)-1-Amino-5-(2-boronoethyl)-2-hydroxycyclohexane-1-carboxylic acid hydrochloride], 10 to 100 µM; in that of `CN(C)C[C@@H]1CC[C@@H](CCB(O)O)C[C@]1(N)C(=O)O` (racemic) [Example 17, rac-(1R,2S,5R)-1-Amino-5-(2-boronoethyl)-2-((dimethylamino)methyl)-cyclohexane-1-carboxylic acid dihydrochloride], 0.001 to 0.1 µM. Still for that read-out and setting: then `NC1(C(=O)O)CC(CCB(O)O)CCC1CCN1CCCC1` (racemic) [Example 25, 1-Amino-5-(2-boronoethyl)-2-(2-(pyrrolidin-1-yl)ethyl)cyclohexane-1-carboxylic acid dihydrochloride], with 0.001 to 0.1 µM.

Consider `N[C@]1(C(=O)O)C[C@H](CCB(O)O)CC[C@H]1CN1CCC(c2ccc(Cl)cc2)CC1` (racemic) [Example 27, rac-(1R,2S,5R)-1-amino-5-(2-boronoethyl)-2-((4-(4-chlorophenyl)piperidin-1-yl)methyl)cyclohexanecarboxylic acid dihydrochloride], for which the IC50 is 0.1 to 1 µM. Still for that read-out and setting: then `N[C@]1(C(=O)O)C[C@H](CCB(O)O)CC[C@H]1CN1Cc2ccccc2C1` (racemic) [Example 29, rac-(1R,2S,5R)-1-amino-5-(2-boronoethyl)-2-(isoindolin-2-ylmethyl)cyclohexanecarboxylic acid dihydrochloride], with 0.1 to 1 µM. `CN(C)C[C@@H]1C[C@@H](CCB(O)O)CC(N)(C(=O)O)C1` (mixture of isomers) [Example 55, rac-(3R,5R)-1-amino-3-(2-boronoethyl)-5-((dimethylamino)methyl)cyclohexanecarboxylic acid dihydrochloride]: the IC50 fell in the range of 1 to 10 µM. Same read-out and setting: in the case of `N[C@@]1(C(=O)O)CNC[C@H](CCB(O)O)C1` (racemic) [Example 58, rac-(3R,5R)-3-amino-5-(2-boronoethyl)piperidine-3-carboxylic acid] it was 10 to 100 µM; in that of `N[C@@]1(C(=O)O)COC[C@H](CCB(O)O)C1` (racemic) [Example 60, rac-(3R,5R)-3-amino-5-(2-boronoethyl)tetrahydro-2H-pyran-3-carboxylic acid hydrochloride], 10 to 100 µM. Same read-out and setting: in the case of `CN(C)C1CCC(CCB(O)O)CC1(N)C(=O)O` (racemic) [Example 64, rac-(1R,5R)-1-amino-5-(2-boronoethyl)-2-(dimethylamino)cyclohexane-1-carboxylic acid dihydrochloride] it was 10 to 100 µM. The same measure, in the same setting: in the case of `CN(C)CC1CC(CCB(O)O)CC1(N)C(=O)O` (racemic) [Example 67, 1-amino-4-(2-boronoethyl)-2-((dimethylamino)methyl)cyclopentane-1-carboxylic acid] it was 10 to 100 µM; in that of `NC1(C(=O)O)CC(CCB(O)O)N(Cc2ccccc2)C1` (stereo not shown) [Example 8, 3-Amino-1-benzyl-5-(2-boronoethyl)pyrrolidine-3-carboxylic acid dihydrochloride], > 100 µM; in that of `NC1(C(=O)O)CC(CCB(O)O)CCC1CN1CCOCC1` (stereo not shown) [Example 20, 1-Amino-5-(2-boronoethyl)-2-(morpholinomethyl)cyclohexane-1-carboxylic acid dihydrochloride], 1 to 10 µM. Turning to `N[C@]1(C(=O)O)C[C@H](CCB(O)O)CC[C@H]1CN1CCCC1` [Example 23, (1R,2S,5R)-1-Amino-5-(2-boronoethyl)-2-(pyrrolidin-1-ylmethyl)-cyclohexane-1-carboxylic acid dihydrochloride], the IC50 fell in the range of 0.001 to 0.1 µM.

Regarding `CC([C@@H]1CC[C@@H](CCB(O)O)C[C@]1(N)C(=O)O)N(C)C` (stereo partly drawn) [Example 42, (1R,2S,5R)-1-amino-5-(2-boronoethyl)-2-(1-(dimethylamino)ethyl)cyclohexanecarboxylic acid dihydrochloride], the IC50 is 10 to 100 µM.

Consider `COC(=O)[C@@]1(N)C[C@H](CCB(O)O)CC[C@H]1CN(C)C` [Example 43, (2-((1R,3R,4S)-3-amino-4-((dimethylamino)methyl)-3-(methoxycarbonyl)cyclohexyl)ethyl)boronic acid dihydrochloride], for which the IC50 lay within 10 to 100 µM.

With `NC1(C(=O)O)CC(CCB(O)O)CCC1CO` (stereo not shown) [Example 49, 1-amino-5-(2-boronoethyl)-2-(hydroxymethyl)cyclohexanecarboxylic acid hydrochloride], the IC50 was 1 to 10 µM. Still for that read-out and setting: then `NCC1CC(CCB(O)O)CC1(N)C(=O)O` (stereo not shown) [Example 66, 1-amino-2-(aminomethyl)-4-(2-boronoethyl)cyclopentane-1-carboxylic acid dihydrochloride], with 0.1 to 1 µM.

In the next assay the target is T2, recombinant human arginase 2 (Homo sapiens, UniProt P78540).
T2 construct: made in house; host or cells: CHO
T2 sequence (P78540 23-354): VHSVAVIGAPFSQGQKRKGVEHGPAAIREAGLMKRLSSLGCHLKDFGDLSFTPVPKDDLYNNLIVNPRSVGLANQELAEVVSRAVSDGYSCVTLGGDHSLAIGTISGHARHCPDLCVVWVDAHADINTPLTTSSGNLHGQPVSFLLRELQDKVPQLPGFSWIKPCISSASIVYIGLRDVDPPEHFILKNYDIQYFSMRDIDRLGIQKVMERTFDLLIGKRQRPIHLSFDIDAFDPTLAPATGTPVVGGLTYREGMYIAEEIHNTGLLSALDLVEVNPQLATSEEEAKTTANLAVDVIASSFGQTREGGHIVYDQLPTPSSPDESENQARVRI
The assay can be described thus: Human arginase activity assay (urea measurement), arginase 2. The conditions noted are these: for selected examples class estimated from % of inhibition at 1 μM and 100 μM, * = most potent diastereoisomer or mixture of diastereoisomers, read-out: Activity Class (ARG II). It is filed as biochemical. The protocol:
as §1
An enzymatic assay with recombinant human arginases 1 (Biolegend, Cat. No. 552502) and 2 (homemade in eukaryotic expression system of CHO, purified by FPLC) was used in order to assess inhibitory activity of the compounds. The assay was run in the 96-well plate format, each reaction in the total volume of 100 uL. The assay is based on urea measurement, which is a product of L-arginine enzymatic degradation. (Baggio et al. J Pharmacol. Exp. Ther. 1999, 290, 1409-1416). The color product is developed by adding a mixture of reagent A (4 mM oPA in 50 mM boric acid in 1M sulfuric acid, 0.03% Brij-35) and reagent B (4 mM NED in 50 mM boric acid in 1M sulfuric acid, 0.03% Brij-35) in equal proportions. The absorbance for each well was measured at 530 nm.
as §2, with “Briefly, to each well of a 96-well microtiter plate 40 μL of enzyme in the reaction assay buffer (pH 7.4, 100 mM sodium phosphate buffer, 130 mM NaCl, 1 mg/mL albumin), 50 μL of the test compound solution and 10 μL of enzyme substrate solution (L-arginine hydrochloride, natural pH 5.6, final concentration 20 mM and a cofactor—manganese chloride, final concentration 150 μM) was added. For” for “For”
For selected examples the activity class for ARG2 was estimated based on % of inhibition for 1 μM and 100 μM concentration of tested compounds.
With `NC1(C(=O)O)CCC(CCB(O)O)C1` (racemic) [Example 1, 1-amino-3-(2-boronoethyl)cyclopentane-1-carboxylic acid], the IC50 was 1 to 10 µM. On the same count and under the same terms, in the case of `C[C@H]1[C@H](CCB(O)O)CCC1(N)C(=O)O` (mixture of isomers) [Example 2, rac-(2S,3R)-1-amino-3-(2-boronoethyl)-2-methylcyclopentane-1-carboxylic acid] it was > 100 µM. Turning to `CC1(CCB(O)O)CCC(N)(C(=O)O)C1` (racemic) [Example 3, 1-amino-3-(2-boronoethyl)-3-methylcyclopentane-1-carboxylic acid], the IC50 was > 100 µM. Still for that read-out and setting: in the case of `N[C@@]1(C(=O)O)C[C@H](CCB(O)O)[C@@H](O)C1` (racemic) [Example 4, rac-(1S,3S,4S)-1-Amino-3-(2-boronoethyl)-4-hydroxycyclopentane-1-carboxylic acid hydrochloride] it was 10 to 100 µM. Same read-out and setting: in the case of `N[C@]1(C(=O)O)C[C@H](CCB(O)O)[C@@H](O)C1` (racemic) [Example 5, rac-(1R,3S,4S)-1-Amino-3-(2-boronoethyl)-4-hydroxycyclopentane-1-carboxylic acid hydrochloride] it was > 100 µM.
